Assay results reported in patent publication US6399629B1, “Efflux pump inhibitors” (priority 1998, dated 2002).

System: Pseudomonas aeruginosa PAM1001
Experiment: checkerboard assay (broth microdilution): levofloxacin MIC in presence of efflux pump inhibitor
Format: cell-based
How it was run: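 Checkerboard broth microdilution in Mueller Hinton Broth against P. aeruginosa PAM1001 (5×10^5 CFU/mL, early-log inoculum), levofloxacin and efflux pump inhibitor (up to 40 μg/mL) diluted along crossing axes. Plates incubated 20 h at 35° C; growth read at 650 nm and visually. Potentiation scored as reduced levofloxacin MIC.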

Row | Compound | Levofloxacin MIC Against P. aerugiuosa PAM1001 in Presence of Efflux Pump Inhibitor (EPI), Minimum Inhibitory Concentration (EPI Conc. 0 μg/mL) | Levofloxacin MIC Against P. aerugiuosa PAM1001 in Presence of Efflux Pump Inhibitor (EPI), Minimum Inhibitory Concentration (EPI Conc. 0.625 μg/mL) | Levofloxacin MIC Against P. aerugiuosa PAM1001 in Presence of Efflux Pump Inhibitor (EPI), Minimum Inhibitory Concentration (EPI Conc. 1.25 μg/mL) | Levofloxacin MIC Against P. aerugiuosa PAM1001 in Presence of Efflux Pump Inhibitor (EPI), Minimum Inhibitory Concentration (EPI Conc. 2.5 μg/mL) | Levofloxacin MIC Against P. aerugiuosa PAM1001 in Presence of Efflux Pump Inhibitor (EPI), Minimum Inhibitory Concentration (EPI Conc. 5 μg/ mL) | Levofloxacin MIC Against P. aerugiuosa PAM1001 in Presence of Efflux Pump Inhibitor (EPI), Minimum Inhibitory Concentration (EPI Conc. 10 μg/mL) | Levofloxacin MIC Against P. aerugiuosa PAM1001 in Presence of Efflux Pump Inhibitor (EPI), Minimum Inhibitory Concentration (EPI Conc. 20 μg/mL) | Levofloxacin MIC Against P. aerugiuosa PAM1001 in Presence of Efflux Pump Inhibitor (EPI), Minimum Inhibitory Concentration (EPI Conc. 40 μg/mL)
1 | CC(C)C[C@H](COc1ccc2ccccc2c1)NC(=O)[C@H]1C[C@H](NC(=O)CN)CN1 [Compound M49, (2R,4S)-4-(2-Aminoacetamideo)-N-[(1R)-3-methyl-1-[(2-naphthyloxy)methyl]butyl]-2-pyrrolidinecarboxamide] | 4 µg/mL | 4 µg/mL | 4 µg/mL | 4 µg/mL | 4 µg/mL | 1 µg/mL | 0.125 µg/mL | 0.06 µg/mL
2 | NC[C@@H]1CN[C@@H](C(=O)N[C@H](CCc2ccccc2)CNC(=O)c2cnc3ccccc3c2)C1 [Compound M103, (2R,4R)-4-(Aminomethyl)-N-[(1R)-3-phenyl-1-[(3-quinolylcarboxamido)methyl]propyl]-2-pyrrolidinecarboxamide] | 4 µg/mL | 4 µg/mL | 4 µg/mL | 4 µg/mL | 2 µg/mL | 1 µg/mL | 0.03 µg/mL | 0.015 µg/mL
3 | NCC(=O)N[C@H]1CN[C@H](C(=O)N[C@H](CCc2ccccc2)c2nc3ccccc3o2)C1 [Compound M77, (2S,4R)-4-(2-Aminoacetamido)-N-[(1R)-1-(2-benzoxazolyl)-3-pheylpropyl]-2-pyrrolidinexarboxamide] | 4 µg/mL | 4 µg/mL | 4 µg/mL | 4 µg/mL | 4 µg/mL | 4 µg/mL | 2 µg/mL | 0.125 µg/mL
4 | NC[C@@H]1CN[C@@H](C(=O)N[C@H](CCc2ccccc2)C(=O)Nc2cc(Cl)ccc2O)C1 [Compound M39, (2R,4R)-4-(Aminomethyl)-N-[(1R)-3-pheyl-1-(5-chloro-2-hydroxyphenylcarbamoyl)propyl]-2-pyrrolidinecarboxamide] | 4 µg/mL | 4 µg/mL | 2 µg/mL | 0.5 µg/mL | 0.25 µg/mL | 0.015 µg/mL | 0.015 µg/mL | 0.015 µg/mL
5 | NC[C@H]1CN[C@@H](C(=O)NCc2nc3ccc(Cc4ccccc4)cc3[nH]2)C1 [Compound M87, (2R,4S)-4-(Aminomethyl)-N-[(5-benzyl-2-benzimidazoiyl)methyl]-2-pyrrolidinecarboxamide] | 4 µg/mL | 4 µg/mL | 4 µg/mL | 1 µg/mL | 0.125 µg/mL | 0.06 µg/mL | 0.03 µg/mL | 
6 | COc1cc(C)c2ncc(NC(=O)[C@@H](CC(C)C)NC(=O)[C@@H]3C[C@@H](NC(=O)CN)CN3)cc2c1 [Compound M10, (2S,4R)-4-(2-Aminoacetamido)-N-[(1R)-3-3-methyl-1-(6-methoxy-8-methyl-3-quinolylcarbamoyl)butyl]-2-pyrrolidinecarboxamide] | 4 µg/mL | 4 µg/mL | 4 µg/mL | 4 µg/mL | 4 µg/mL | 4 µg/mL | 1 µg/mL | 0.06 µg/mL
7 | NCC(=O)N[C@@H]1CN[C@@H](C(=O)N[C@H](CCc2ccccc2)C(=O)Nc2cnc3ccccc3c2)C1 [Compound M1, (2R,4S)-4-(2-Amionoacetamido)-N-[(1R-)-3-phenyl-1-(3-quinolylcarbamoyl)propyl]-2-pyrrolidinecarboxamide] | 4 µg/mL | 4 µg/mL | 4 µg/mL | 4 µg/mL | 2 µg/mL | 0.06 µg/mL | 0.015 µg/mL | 0.015 µg/mL
8 | Cc1cc2nc(C(O)[C@@H](CCc3ccccc3)NC(=O)[C@@H]3C[C@@H](NC(=O)CN)CN3)oc2cc1C (some centres unmarked) [Compound M67] | 4 µg/mL | 4 µg/mL | 4 µg/mL | 4 µg/mL | 4 µg/mL | 0.5 µg/mL | 0.03 µg/mL | 
9 | CC(C)(C)c1ccc2ncc(NC(=O)[C@@H]3C[C@@H](OCCN)CN3)cc2c1 [Compound M92, (2S,4R)-4-(2-Aminoethyloxy)-N-(6-(1,1-dimethyl)ethyl-3-quinolyl)-2-pyrrolidinecarboxamide] | 4 µg/mL | 4 µg/mL | 4 µg/mL | 4 µg/mL | 4 µg/mL | 2 µg/mL | 0.06 µg/mL | 0.008 µg/mL
10 | CN(C(=O)CN)[C@@H]1CN[C@H](C(=O)N[C@H](CCc2ccccc2)C(=O)Nc2cnc3ccccc3c2)C1 [Compound M9] | 4 µg/mL | 4 µg/mL | 4 µg/mL | 4 µg/mL | 4 µg/mL | 4 µg/mL | 2 µg/mL | 0.06 µg/mL
11 | CC(C)C[C@H](COc1cnc2ccccc2c1)NC(=O)[C@H]1C[C@H](CN)CN1 [Compound M59, (2R,4R)-4-(Aminomethyl)-N-[(1R)-3-methyl-1-[(3-quiolyloxy)methyl]butyl]-2-pyrrolidinecarboxamide] | 4 µg/mL | 4 µg/mL | 4 µg/mL | 4 µg/mL | 4 µg/mL | 1 µg/mL | 0.5 µg/mL | 0.125 µg/mL
